Laboratory results as given in patent EP0770606A1, “Cis-epoxide derivate useful as irreversible HIV protease inhibitor and process for its preparation” (LG Chemical Limited, priority 1995, dated 1997).

Tests used:
HIV-1 = experiment: Anti-viral activity: inhibition of HIV proliferation in H9 (reverse transcriptase activity) and Sup T1 (syncytium formation) cell lines; assay type: cell-based; details: concentration at which the proliferation of HIV is inhibited by 50%, H9 or Sup T1 cells, cell line not stated
Procedure: 1 x 10^5 cells of each of H9(ATCC HTB 176) and Sup T1 cell lines were added to the wells of a 24-well microtiter plate and the compound of the present invention was added thereto in various concentrations. 200 TCID50(200-fold of 50% tissue culture infection dose) of HIV-1 inoculum and rpmi-1640 medium(Sigma Chemical Co., U.S.A) were added successively to the wells and the plate was incubated at 37°C. In case of Sup T1, the number of syncytium formed was investigated after 3 to 9 days.
In the case of H9, three-quarters(3/4) of the culture medium was refreshed every 3 days. After 9 days, 6ml of the culture fluid was centrifuged at 1000rpm for 10 minutes. To 5ml of the resulting supernatant were added 2.5ml of 30% polyethylene glycol(PEG, M.W. 6000-8000) and 0.4M NaCl. The resulting solution was allowed to stand at 0°C overnight to precipitate virus particles. The solution was centrifuged at 2000rpm for 45 minutes, the supernatant was discarded therefrom and the precipitate was diluted with 20ml of a reverse transcriptase suspension buffer(50mM tris-HCl(Sigma), pH 7.5, 1mM dithiothreitol, 20% glycerol, 0.25M KCl and 0.25% Triton X-100). The resulting suspension was stored in an Effendorf tube at -70°C until use. A cycle of freezing the above virus suspension for 2 minutes in dry ice and thawing it at 37°C for 2 minutes was repeated three times and the resulting suspension was centrifuged at 4°C. The resulting supernatant was used in carrying out the reverse transcriptase assay.
10µl of the above virus suspension was added to a solution prepared by mixing: 10µl of buffer solution(250mM tris-HCl, pH 7.5, 37.5mM MgCl2, 0.25% triton X-100), 1.2µl of 200mM dithiothreitol, 5µl of 10µM oligo(dT)-poly(A)(Boeringer Mannheim, 12-18 oligomer), 1µl(1µCi) of ^3H-TTP(thymidinetriphosphate) and 23.6µl of water; and the resulting mixture was kept at 37°C. […] The amount of radioactivity was counted using a liquid scintillation counter.

[1] = Cytotoxicity by trypan blue dye exclusion; assay type: cell-based; details: human, h9 or sup t1 cells; concentration at which 50% of the cells die; 0.1µM to 100µM tested; cell line not stated; read-out: CT50 (the source's name)
Procedure: (§1) To determine the cytotoxicity of the compound of the present invention, 0.1µM to 100µM of the compound was added to H9 cell or Sup T1 cell and the mixture was cultured on a rpmi-1640 medium at 37°C. The medium was refreshed every 3 days and the extent of cell proliferation was observed using Hemacytometer according to the trypan blue dye exclusion technique which is well known in the art. CT50(i.e., the concentration at which 50% of the cells die) was determined.

H9 cell or Sup T1 cell = experiment: Cytotoxicity by trypan blue dye exclusion; assay type: cell-based; details: human, h9 or sup t1 cells
Procedure: as §1

HIV-1 protease = target: T1, HIV-1 protease (Human immunodeficiency virus type 1 group M subtype B, UniProt P04585); assay type: biochemical; details: KINSIM/FITSIM analysis
T1 construct: adding 2.6nM of HIV-1 protease to the preincubation solution
Procedure: To a buffer solution comprising 50mM sodium acetate, pH 5.5, 1mM dithiothreitol(DTT), 1mM ethylenediaminetetraacetate (EDTA), 0.75M ammonium sulfate and 0.1% NP40(NONIDET P-40; Sigma Chemical Co., U.S.A.), was added a pre-determined amount of the compound obtained in Example to prepare a preincubation solution having a known concentration of the compound. The inhibition reaction was initiated by adding 2.6nM of HIV-1 protease to the preincubation solution. 10µl samples of the reaction solution were taken at a given time interval and each sample was added to 80µl of assay solution containing 100µM of reaction substrate in the same buffer solution as above to assay for the residual enzyme activity. […] The reaction rate was determined by subjecting both the substrate before the reaction and the product after the reaction to HPLC separation and then measuring the amount of the product relative to the substrate, using the strong absorbance of (p-NO2)-Phe at 280nm. The decrease in the enzyme activity with time was measured for each sample and the natural logarithmic values(ln) of the data points in a given experiment were plotted against time to obtain a linear correlation line. kobs was then calculated from the slope of the line.
The inhibition constant was calculated according to the following equation: (1)/(kobs)=(1)/(kina)+(KI)/(kina)(1)/([I]) [formula] wherein: kobs is a rate constant representing the rate of decrease in enzyme activity in the presence of the inhibitor, kina is a rate constant representing the rate of the irreversible covalent bond formation between the enzyme and the inhibitor (in Michaelis-Menten complex), KI is an inhibition constant represented by the equilibrium constant for the formation of the Michaelis-Menten complex from an enzyme and an inhibitor, and [I] designates the inhibitor concentration.
The inhibition constants KI, the rate constant kina and the second order rate constant kina/KI were tabulated by inputting the value of [E]/([E]+[EI]+[EI'] [formula] ) into KINSIM/FITSIM program.

Molecule	IC50 (HIV-1)	IC50 (HIV-1; Human immunodeficiency virus 1)	CC50 [1]	CC50 (H9 cell or Sup T1 cell)	Ki (HIV-1 protease; inhibition constant, 2.6nM HIV-1 protease, pH 5.5)	kina (HIV-1 protease; rate constant of irreversible covalent bond formation between enzyme and inhibitor)	kina/KI (HIV-1 protease; second order rate constant)
CC(C)c1nc(CN(C)C(=O)N[C@H](C(=O)N[C@@H](Cc2ccccc2)C[C@H](O)[C@H](Cc2ccccc2)NC(=O)OCc2cncs2)C(C)C)cs1 [ABI-538]	53 nM						
CC(C)(C)NC(=O)[C@@H]1CN(Cc2cccnc2)CCN1C[C@@H](O)C[C@@H](Cc1ccccc1)C(=O)N[C@H]1c2ccccc2C[C@H]1O [MK-639, reference compound]		10 nM	10000 nM				
[(5S)-[(N-isopropyloxycarbonyl)-β-methanesulfonyl-L-valinyl]amino]-(4R, 3S)-epoxy-6-phenyl-1-hexanoyl]-[(2S)-(1-phenyl-3-methyl-1-oxo)butylamino]amide [compound of the present invention]	15 nM			10000 nM	12 nM	3.2 min⁻¹	2.7 x 10^7 min^-1M^-1
